Measured values: US7592367B2, “Compounds from Garcinia hanburyi, their use in treating cancer and method of separating epimers thereof” (priority 2005, dated 2009)
Like-named read-outs stand apart in the source and are kept apart here.

Experiments:
[1] = system: doxorubicin-resistant K562 (K562/R) cell line
Protocol: (§1) Cytotoxicity Assay: Both epimers were tested for their cytotoxicities against human leukemia K562 (K562/S) and doxorubicin-resistant K562 (K562/R) cell lines, using the SRB method previously described with doxorubicin being the positive control. The OD data were recorded in X±S, and the IC50 values were calculated with sigmoidal plot.

[2] = system: human leukemia K562 (K562/S) cell line
Protocol: as §1

[3] = system: human leukemia K562 (K562/S) cell line; assay: MTT cytotoxicity assay, doxorubicin-sensitive K562
Protocol: Both doxorubicin-resistant (K562/R) and -sensitive K562 (K562/S) cell sublines, purchased from Tianjin Instute of Hematopathy, the Chinese Academy of Medical Sciences, China, were cultured in PRMI1640 (Gibco, USA) medium and supplemented with 10 fetal bovine serums at 37° C. in a humidified incubator with 5% CO2. MTT assay was performed using a reported method [12]. Cell lines were seeded into 96-well plates at 6000 viable cells per well. The test chemicals (ADR, DMSO, Th1 and Th2) with different concentrations were loaded in a final volume of 200 μL per well. After 44 hours of incubation, MTT (5 g/L) was added to each well in a volume of 10 μl and incubated for 4 hours. Afterwards, the medium was removed and 200 μl of Me2SO (37° C.) was added and shaken for 5 minutes. A 96-well microtiter plate reader was used to determine absorbance values at 570 nm. Mean value of each concentration (n=3 wells) was obtained. Absorbance of untreated controls was taken as 100%. Survival rate was calculated as follows: Cell survival rate (%)=(T−B)/(U−B)×100%, T (treated) is absorbance of chemically treated cells, U (untreated) is the absorbance of untreated cells, and B (blank) is the absorbance when neither cells nor chemicals was added.

[4] = system: doxorubicin-resistant K562 (K562/R) cell line; assay: MTT cytotoxicity assay, doxorubicin-resistant K562; type: cell-based, human; settings: read-out: Cytotoxicity IC50 against K562/R
Protocol: MTT assay was performed using a reported method. […] Absorbance of untreated controls was taken as 100%. […] An aliquot of the supernatant was analyzed by HPLC.

[5] = system: human cytochrome P-450 enzymes (1A2, 2A6, 2D6, 2E1, 3A4); assay: CYP inhibition in human liver microsomes, five isoforms other than CYP2C9; type: in vitro ADME; settings: probe reactions
[6] = target: T1, CYP2C9 (Homo sapiens, UniProt P11712); type: in vitro ADME; settings: microsomes
T1 construct: HLM were prepared from liver tissue as described in the literature [13]; from tissue; host or cells: human liver microsomes prepared from an autopsy liver sample (person)

[7] = system: doxorubicin-resistant K562 (K562/R) cell line; assay: SRB cytotoxicity assay, doxorubicin-resistant K562; settings: Homo sapiens, K-562R, read-out: Cytotoxicity IC50 against K562/R
Protocol: as §1

[8] = system: human leukemia K562 (K562/S) cell line; assay: SRB cytotoxicity assay, K562/S; settings: K562, read-out: Cytotoxicity IC50 against K562/S
Protocol: as §1

[9] = Homo sapiens, K562, read-out: Cytotoxicity IC50 against K562/S

T1 sequence (P11712 whole entry): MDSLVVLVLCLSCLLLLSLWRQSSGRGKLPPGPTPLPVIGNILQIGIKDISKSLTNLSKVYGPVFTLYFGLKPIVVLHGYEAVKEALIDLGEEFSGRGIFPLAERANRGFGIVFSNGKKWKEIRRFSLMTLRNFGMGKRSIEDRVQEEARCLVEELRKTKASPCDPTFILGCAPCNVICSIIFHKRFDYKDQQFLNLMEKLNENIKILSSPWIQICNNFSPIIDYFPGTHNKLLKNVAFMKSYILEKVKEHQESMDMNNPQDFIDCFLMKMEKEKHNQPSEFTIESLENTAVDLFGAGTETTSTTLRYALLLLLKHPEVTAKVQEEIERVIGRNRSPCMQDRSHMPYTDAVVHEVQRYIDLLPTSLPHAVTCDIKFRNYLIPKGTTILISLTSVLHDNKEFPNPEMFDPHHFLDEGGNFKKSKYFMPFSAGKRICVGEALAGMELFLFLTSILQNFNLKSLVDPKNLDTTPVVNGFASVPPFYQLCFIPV

Molecule	IC50 [1] [nM]	IC50 [2] [nM]	IC50 [3, 9] [nM]	Inhibitory effect toward five human cytochrome P-450 enzymes other than CYP2C9 [5]	further results
30-hydroxyepigambogic acid [compound 2]	4490 ± 310	3610 ± 170			
30-hydroxygambogic acid [compound 1]	2890 ± 350	1270 ± 150			
CC(C)=CCC[C@]1(C)C=Cc2c(O)c3c(c(CC=C(C)C)c2O1)O[C@]12C(=C[C@@H]4C[C@H]1C(C)(C)O[C@@]2(C/C=C(/C)C(=O)O)C4=O)C3=O (single isomer, unassigned) [Epimer 1, gambogic acid]			890	little inhibitory effects	IC50 ([4]; Homo sapiens, K-562R): 1320 nM
CC(C)=CCCC1(C)C=Cc2c(O)c3c(c(CC=C(C)C)c2O1)OC12C(=CC4CC1C(C)(C)OC2(CC=C(C)C(=O)O)C4=O)C3=O (single isomer, unassigned; epimer 2) [Epimer 2, epigambogic acid]				little inhibitory effects	CYP2C9 inhibitory effect, S-epimer relative to R-epimer [6]: 20 folds; IC50 ([3]; read-out: Cytotoxicity IC50 against K562/S, K562/S, Example 1 MTT assay, Table 4 columns marked ^a): 860 nM; IC50 ([4]; doxorubicin-resistant K562/R, Example 1 MTT assay, Table 4 columns marked ^a): 1110 nM
COc1cccc2c1C(=O)c1c(O)c3c(c(O)c1C2=O)C[C@@](O)(C(=O)CO)C[C@@H]3O[C@H]1C[C@H](N)[C@H](O)[C@H](C)O1 [Doxorubicin, doxorubicin, reference compound]			660		IC50 [7]: 1790 ± 170 nM; IC50 ([4]; Homo sapiens, K-562R, doxorubicin-resistant K562/R, Example 1 MTT assay, Table 4 columns marked ^a): 10800 nM; IC50 [8]: 110 ± 10 nM
